Measured values as given in patent US5747503A, “Selective inhibitors of biogenic amine transporters” (priority 1996, dated 1998).
“Also recorded” adds a separate entry of the source.

How the values were obtained:
[1] = system: extracellular dopamine in the nucleus accumbens; details: literature; cited from earlier work
NMDA receptor = details: Table 2; literature values (footnotes 1 and 2); read-out: NMDA Induced Current IC50; cited from earlier work
DA transporter = details: Kuhar et al. 1990; cited from earlier work
[2] = system: extracellular dopamine in the nucleus accumbens; experiment: In vivo microdialysis of extracellular dopamine in nucleus accumbens; parameters: species or system rat
Procedure: FIG. 3. In vivo microdialysis of extracellular dopamine in the nucleus accumbens at concentrations of 1, 10, and 100 μM of RTI-4793-14. All values are mean ±SEM (n=4). Group comparisons are made with one-way ANOVA and the Dunnetts t-test *p<0.05 and **p<0.01.
FIG. 4. Effects of systemic RTI-4793-14 (5 mg/kg, i.v.) on extracellular dopamine in the nucleus accumbens. All values are mean ± SEM (n=3). Group comparisons are made with one-way ANOVA and the Dunnetts t-test *p<0.05 and **p<0.01. FIG. 5. Schematic diagram for the synthesis of RTI-4793-41 and RTI-4793-48 compounds and analogs thereof.
Male Sprague Dawley rats (350-450 g) were anesthetized with chloral hydrate (400 mg/kg; 100 mg/ml) and supplemented as required (90 mg/kg) to abolish the corneal reflex. Animals were then placed in a stereotaxic frame and dialysis probes (CMA 12, 2 mm) were implanted into the nucleus accumbens (AP:+2mm, LAT:+l.5mm, H:-7.5mm relative to bregma) according to the atlas of Paxinos and Watson (Paxinos, G. "The rat brain in stereotaxic coordinates." (New York: Academic Press, 1982)). The dialysis probes were perfused with a physiological medium containing 145 mM NaCl, 4 mM KCl, 1.3 mM CaCl2, and 2 mM Na2 HPO41 the final pH of the medium being pH 7.4. The probes were dialyzed at a flow rate of […]. and samples were collected every 15 min.
The dialysis probes were allowed to equilibrate for 1-2 hours prior to collection of the baseline samples. […] RTI-4793-14 (1-100 μM) was then administered focally via the dialysis probe for a 15 min. sampling period at the end of which normal dialysis medium was dialyzed through the probe. Sampling continued for a further 3 samples before application of the subsequent concentration of RTI-4793-14. In a subsequent group of animals RTI-4793-14 was administered systemically (5mg/kg; 5mg/ml) via a femoral vein catheter.
The samples were analyzed for DA using HPLC with electrochemical detection. The mobile phase (75 mM NaH2 PO4, 1.5 mM sodium dodecyl sulphate, 20 mM EDTA, 15% acetonitrile and 12% methanol, pH 5.6) was filtered and degassed before pumping at a rate of 0.75 ml/min. through a HR-80 column (3m BDS, 80×4.6 mm). Electrochemical detection-was performed using a Coulochem II with Guard cell:+350 mV, Det 1: -75 mV, and Det 2: +22 mV.
In vivo microdialysis data were analyzed by using a one-way ANOVA and post-hoc Dunnetts t-test. In the focal RTI experiments in which 3 drug concentrations were administered, the baseline value for dopamine was defined as the sample preceding the application of each drug concentration. Analysis of any drug effect was therefore made comparing the baseline value prior to the drug administration.

[3] = system: eleven neurotransmitter, four regulatory site, four ion channel, and three second-messenger assays; experiment: NovaScreen/NIMH Psychoactive Drug Discovery Program panel; details: 10^-5 M
Procedure: Compound 3b also was tested in the NovaScreen/NIMH Psychoactive Drug Discovery Program which included eleven neurotransmitter, four regulatory site, four ion channel, and three second-messenger assays.

Structure (SMILES) | effect on extracellular DA levels [1] | IC50 (NMDA receptor) [µM] | affinity at the DA transporter labeled with [^3 H]mazindol (DA transporter) | increase in extracellular DA ([2]; focal application via the microdialysis probe, 1 μM) | increase in extracellular DA ([2]; focal application via the microdialysis probe, 10 μM) [fold] | increase in extracellular DA ([2]; intravenous, 5 mg/kg) | effect on extracellular dopamine in words ([2]; local or systemic administration in rats) | inhibition in NovaScreen panel [3]
CNC1CC(c2ccc(Cl)c(Cl)c2)c2ccccc21 (stereo not drawn) [Indatraline] | increase extracellular DA levels | – | – | – | – | – | – | –
c1ccc(C2(N3CCCCC3)CCCCC2)cc1 [PCP, phencyclidine] | increase extracellular DA levels | 2 | low affinity | – | – | – | – | –
CN1[C@H](Cc2ccccc2)C[C@H]2Cc3ccccc3[C@H]21 (relative stereo) [RTI-4793-14, (2RS, 3aSR, 8aRS)-1,2,3a,8,8a-Hexahydro-2-benzyl-1-methyl-indeno[1,2-b]pyrrole] | – | – | – | about 2 fold | ~8 | about 2 fold | increased extracellular DA; also recorded: increase the levels of dopamine in the brain | No significant inhibition
